Experimental data: US20190290656A1, “PT(IV) PRODRUGS” (YISSUM RESEARCH DEVELOPMENT COMPANY OF THE HEBREW …, priority 2015, published 2019)

What was measured:
BxPC3 spheroids = experiment: 3D spheroid APH assay, BxPC3; format: cell-based, human; details: 72 h, APH test
Text: (§1) Acid phosphatase (APH) assay. A modified APH assay, which is based on quantification of cytosolic acid phosphatase activity, was used for determining cell viability in spheroids. […] Triplicate cultures were established for each treatment. […] Evaluation was based on means from at least four independent experiments.
(§2) In order to improve the predictive capacity of the in vitro assays, we tested the activity in three three-dimensional (3D) cell cultures; human colon cancer cells, HCT-15, and human pancreatic cancer cells, KRAS wild type BxPC3 cells KRAS mutated PSN-1 cells. The cancer spheroids were treated with 3a and 3b for 72 h and the cell viability was assessed by means of the APH assay (Table 6). For comparison purposes, the cytotoxicities of CDDP and OXP were evaluated under the same experimental conditions.

A375 cells = experiment: MTT cytotoxicity assay, A375; format: cell-based, human; details: A375, 72 h, MTT (Table 5); read-out: IC50 (μM) ± S.D.
Experimental: (§3) Cisplatin (CDDP) and oxaliplatin (OXP) were dissolved just before the experiment in a 0.9% NaCl solution. […]
(§4) Cancer Res. 1988, 48, 589-601]. […] Triplicate cultures were established for each treatment.
(§5) MTT assay. […] Triplicate cultures were established for each treatment.
(§6) The two dimers, 3a and 3b, as well as compounds 1a and 2a were screened against six human cancer cell lines representative of lung (H157), colon (HCT-15), cervical (A431), ovarian (2008) and pancreatic (PSN1) cancers, along with melanoma (A375). Cytotoxicity was evaluated by means of the MTT test after 72 h of treatment and the in vitro antitumor potential of newly synthesized derivatives was compared to that of the reference metallo-drugs CDDP and OXP.

A431 cells = experiment: MTT cytotoxicity assay, A431; format: cell-based, human; details: A431, 72 h
Experimental: as §5, §6

H157 cells = experiment: MTT cytotoxicity assay, H157; format: cell-based, human; details: H157, 72 h
Experimental: as §5, §6

PSN-1 spheroids = experiment: 3D spheroid APH assay, PSN-1; format: cell-based, human; details: PSN-1 spheroids, 72 h, APH test
Text: as §1, §2

HCT-15 spheroids = experiment: 3D spheroid APH assay, HCT-15; format: cell-based, human; details: HCT-15 spheroids, 72 h, APH test
Text: as §1, §2

[1] = test system: Histone deacetylase (HDAC); experiment: Histone deacetylase assay in 2008 cells; format: cell-based, human; details: 24 h, IC50 concentrations
Experimental: (§7) Histone deacetylase assay. Histone deacetylase activity was determined using Fluor-de-Lys® HDAC fluorometric activity assay kit (Enzo Life Sciences International, Inc., Plymount Meeting, Pa., U.S.A.). 2008 and PSN1 cells (5.10^4 seeded in 96-well microplates) were treated for 24 h with tested complexes, and then processed as reported by the manufacturer's instructions. Fluorescence was measured using a Fluoroskan Ascent FL (Labsystem, Finland) plate reader, with excitation at 360 nm and emission at 460 nm.
(§8) Thus, we measured both the levels of DNA platination and the ability of these pro-drugs to inhibit HDAC activity in cancer cells.

[2] = test system: human embryonic kidney HEK293 cells; experiment: MTT cytotoxicity against non-tumor cells; format: cell-based
Experimental: as §5
The cytotoxic activity of derivatives 3a and 3b was also evaluated against non-tumor cells, namely human embryonic kidney HEK293 cells (Table 7). Both compounds 3a and 3b were more cytotoxic than CDDP.

2008 cells [3] = experiment: MTT cytotoxicity assay, 2008; format: cell-based, human; details: 2008, 72 h, MTT
Experimental: as §5, §6

PSN-1 cells = experiment: Glycolysis (Mito-ID O2 sensor), PSN-1; format: cell-based, human; details: IC50 concentrations, 24 h
Experimental: (§9) Glycolysis. The cellular glycolytic activity was assessed using the Mito-ID® O2 Extracellular Sensor Kit according to the manufacturer's instructions (Enzo Life Sciences, Farmingdale, N.Y.). Briefly, PSN-1 cells (15·10^3 per well) were seeded in 96-well plates. After 24 h, cells were treated with Mito-ID® O2 Sensor Probe Solution containing the tested compounds at the appropriate concentration. Fluorescence was estimated using a plate reader (Fluoroskan Ascent FL, Labsystem, Finland) at 350 nm (excitation) and 610 nm (emission).
(§10) Based on the above findings, we investigated the effects determined by derivatives 3a and 3b on 2008 and PSN-1 cancer cell aerobic glycolysis and mitochondria function.
(§11) However, these effects were magnified in PSN-1 cells, having reduction of cellular glycolytic activity of about 36 and 20% for 3a and 3b, respectively. […] This latter result could be explained tacking into consideration that the reference compound [Pt(DACH)(56Phen)] itself, that is also released upon reduction of 3a and 3b, is effective in hampering cellular glycolysis in both tested cancer cell lines. The difference between 3a and 3b might be attributed to the added effect of DCA.

[4] = test system: Histone deacetylase (HDAC); experiment: Histone deacetylase assay in PSN-1 cells; format: cell-based, human; details: 24 h, IC50 concentrations
Experimental: as §7, §8

2008 cells [5] = experiment: Glycolysis (Mito-ID O2 sensor), 2008; format: cell-based, human; details: IC50 concentrations, 24 h
Experimental: as §9, §10, §11

PSN1 cells = experiment: MTT cytotoxicity assay, PSN1; format: cell-based, human; details: PSN1, 72 h, MTT
Experimental: as §5, §6

HCT-15 cells = experiment: MTT cytotoxicity assay, HCT-15; format: cell-based, human; details: HCT-15, 72 h, MTT (Table 5); read-out: IC50 (μM) ± S.D.
Experimental: as §3, §4, §5, §6

c,c,t,t,c,c-[(DACH)(56Phen)(OAc)Pt(μ-OOC—(CH2)2—CONH(CH2)3COO)-Pt(OAc)(NH3)2(Cl2)](TFA)2 [Compound 3b]
IC50 (BxPC3 spheroids): 81.3 ± 6.25 µM
IC50 (A375 cells): 1.05 ± 0.18 µM
IC50 (A431 cells): 5.25 ± 0.41 µM
IC50 (H157 cells): 8.25 ± 1.21 µM
IC50 (PSN-1 spheroids): 60.5 ± 5.76 µM
IC50 (HCT-15 spheroids): 75.9 ± 4.52 µM
HDAC activity hampered [1]: not effective in modifying HDAC activity
IC50 ([2]; HEK293 non-tumor cells, 72 h, MTT): 7.8 ± 3.36 µM
SI (selectivity index) ([2]; ratio between average IC50 of non-tumor cells and IC50 of malignant cells): 1.7
IC50 (2008 cells [3]): 6.04 µM
reduction of cellular glycolytic activity (PSN-1 cells): ~20%
HDAC activity hampered [4]: not effective in modifying HDAC activity
reduction of glycolysis processes compared with untreated control cells (2008 cells [5]): ~14%
IC50 (PSN1 cells): 6.12 µM
IC50 (HCT-15 cells): 1.89 ± 0.69 µM
